Assay results from patent US20220289794A1, “SYNTHETIC ANTIMICROBIAL PEPTIDES” (priority 2019, published 2022).
Values after ≈ are worked out from the molar mass of the structure shown. Where two headings read alike, the source gives them in different places. Values belong to the molecule of their own block, whether it stands above or below them. Residues, ends and D or L forms follow the SMILES beside them.

Assays:
[1] = test system: Methicillin-resistant Staphylococcus aureus MRSA (ATCC BAA-1556); format: cell-based
Protocol: (§1) All bacteria pathogens tested clinically reported multi-drug resistant strains. The antibacterial activity was tested against Gram-negative strains namely; Pseudomonas aeruginosa (PSA), Klebsiella pneumoniae (KPC), Escherichia coli (E. coli) and Gram-positive Methicillin-resistant Staphylococcus aureus (MRSA). The minimum inhibitory concentration (MIC) is the lowest concentration of the antibiotic that inhibits microbial growths. MIC is determined by visual inspection or use of spectrophotometer plate reader to determine media turbidity. On the other hand, the minimum bactericidal concentration (MBC) is the lowest concentration that kills […] of bacterial growth. Cytotoxicity of peptides in the hepatic cell line, human skin fibroblast cell line, heart/myocardium cells, and human lung fibroblast cells is shown in FIGS. 36-46). […] (IFX-315)-Au-NP with antibiotics are shown in FIGS. 49-58 when the gold nanoparticles are formed by the peptide followed by addition of the antibiotic. […] (IFX-301) with antibiotics (1:1 ratio) first and then used in the synthesis of Au-NP in antibacterial activities is shown in FIGS. 59-68.
(§2) The MBC is identified by determining the lowest concentration of antibacterial agent that reduces the viability (concentration of peptides necessary to achieve a bactericidal effect) of the initial bacterial inoculum by ≥99.9%.

[2] = test system: Escherichia coli (ATCC 25922); format: cell-based
Protocol: as §1, §2

[3] = test system: Klebsiella pneumoniae (ATCC BAA-1705); settings: ATCC BAA-1705
[4] = test system: Pseudomonas aeruginosa (ATCC 27883); settings: ATCC 27883
[5] = test system: Methicillin-resistant Staphylococcus aureus MRSA (ATCC BAA-1556); settings: ATCC BAA-1556
[6] = test system: Escherichia coli (ATCC 25922); settings: ATCC 25922
[7] = test system: Klebsiella pneumoniae (KPC, ATCC BAA-1705); assay: microbe, parasite or virus in culture; settings: ATCCBAA1705, 24 h
[8] = test system: Escherichia coli (E. Coli, ATCC 25922); assay: microbe, parasite or virus in culture; settings: ATCC25922, 24 h
MRSA (ATCC BAA-1556) = settings: MRSA (ATCC BAA-1556), antibiotic alone
[9] = test system: Pseudomonas aeruginosa (PSA, ATCC 27883); assay: microbe, parasite or virus in culture; settings: ATCC27883, 24 h
[10] = test system: Escherichia coli (E. Coli, ATCC 25922); settings: Table 25; Escherichia coli (ATCC 25922); antibiotic alone
[11] = test system: Methicillin-resistant Staphylococcus aureus MRSA (ATCC BAA-1556); assay: microbe, parasite or virus in culture; settings: ATCCBAA1556|MRSA, 24 h
[12] = test system: Klebsiella pneumoniae (KPC, ATCC BAA-1705); settings: Table 26; Klebsiella pneumoniae (ATCC BAA-1705); antibiotic alone
[13] = test system: Pseudomonas aeruginosa (PSA, ATCC 27883); assay: Synergy checkerboard assay (FIC index); format: cell-based; settings: Pseudomonas aeruginosa (ATCC 27883), antibiotic alone
[14] = test system: Enterococcus faecium ATCC 27270; settings: ATCC 27270
[15] = read-out: Klebsiella pneumoniae (ATCC BAA-1705) MIC, Table 29, [R6W4] (IFX-318), antibiotics alone and PHY-MIX (1:1 w/w)
[16] = read-out: Klebsiella pneumoniae (ATCC BAA-1705) MIC, Table 30, [R5W4K] (IFX-315), antibiotics alone and PHY-MIX (1:1 w/w)
[17] = read-out: Klebsiella pneumoniae (ATCC BAA-1705) MIC, Table 31, [R5W4] (IFX-301), antibiotics alone and PHY-MIX (1:1 w/w)
[18] = read-out: Escherichia coli (ATCC 25922) MIC, Table 30, [R5W4K] (IFX-315), antibiotics alone and PHY-MIX (1:1 w/w)
[19] = read-out: Escherichia coli (ATCC 25922) MIC, Table 31, [R5W4] (IFX-301), antibiotics alone and PHY-MIX (1:1 w/w)
[20] = read-out: Pseudomonas aeruginosa (ATCC 27883) MIC, Table 29, [R6W4] (IFX-318), antibiotics alone and PHY-MIX (1:1 w/w)
[21] = read-out: Pseudomonas aeruginosa (ATCC 27883) MIC, Table 30, [R5W4K] (IFX-315), antibiotics alone and PHY-MIX (1:1 w/w)
[22] = read-out: MRSA (ATCC BAA-1556) MIC, Table 31, [R5W4] (IFX-301), antibiotics alone and PHY-MIX (1:1 w/w)

KPC (ATCC BAA-1705) MIC [3]: 512 µg/mL | PSA (ATCC 27883 MIC) [4]: 256 µg/mL | MRSA (ATCC BAA-1556) MIC [5]: 64 µg/mL | E. coli (ATCC 25922) MIC [6]: 128 µg/mL
Molecule: N=C(N)NCCC[C@H](NC(=O)[C@H](CCCNC(=N)N)NC(=O)[C@H](CCCNC(=N)N)NC(=O)[C@H](CCCNC(=N)N)NC(=O)[C@H](CS)NC(=O)[C@H](Cc1c[nH]c2ccccc12)NC(=O)[C@H](Cc1c[nH]c2ccccc12)NC(=O)[C@H](Cc1c[nH]c2ccccc12)NC(=O)[C@@H](N)Cc1c[nH]c2ccccc12)C(=O)N[C@@H](CS)C(=O)O [IFX-332] (H-WWWWCRRRRC-OH)
MRSA (ATCC BAA-1556) MBC [1]: 128 µg/mL | E. coli (ATCC 25922) MBC [2]: 256 µg/mL

MIC MRSA ATCC BAA-1556 (MRSA): 16 µg/mL (≈ 15.6 µM) | MIC Escherichia coli (ATCC 25922) (E. coli): 32 µg/mL (≈ 31.2 µM) | MIC Pseudomonas aeruginosa (ATCC 27883) (PSA): 128 µg/mL (≈ 125 µM) | MIC Klebsiella pneumoniae (ATCC BAA-1705) (KPC): 64 µg/mL (≈ 62.3 µM)
Molecule: N=C(N)NCCC[C@@H]1NC(=O)[C@H](CCCNC(=N)N)NC(=O)[C@H](Cc2c[nH]c3ccccc23)NC(=O)[C@H](Cc2c[nH]c3ccccc23)NC(=O)[C@H](Cc2c[nH]c3ccccc23)NC(=O)[C@H](CCCNC(=N)N)NC1=O [[R3W3] (IFX-302)] (cyclo(WWWRRR))

MIC [7, 15]: 16 µg/mL (≈ 34.2 µM) | MIC [7, 16]: 16 µg/mL (≈ 34.2 µM) | MIC [7, 17]: 16 µg/mL (≈ 34.2 µM) | MIC [8, 18]: 8 µg/mL (≈ 17.1 µM) | MIC [8, 19]: 8 µg/mL (≈ 17.1 µM) | MIC of antibiotic (MRSA (ATCC BAA-1556)): 0.5 µg/mL | MIC of antibiotic (MRSA (ATCC BAA-1556); Table 25): 0.5 µg/mL | MIC [9, 20]: 0.5 µg/mL (≈ 1.07 µM) | MIC [9, 21]: 0.5 µg/mL (≈ 1.07 µM) | MIC ([9]; read-out: Pseudomonas aeruginosa (ATCC 27883) MIC, Table 31, [R5W4] (IFX-301), antibiotics alone and PHY-MIX (1:1 w/w)): 0.5 µg/mL (≈ 1.07 µM) | MIC of antibiotic [10]: 8 µg/mL | MIC ([11]; read-out: MRSA (ATCC BAA-1556) MIC, Table 30, [R5W4K] (IFX-315), antibiotics alone and PHY-MIX (1:1 w/w)): 0.5 µg/mL (≈ 1.07 µM) | MIC [11, 22]: 0.5 µg/mL (≈ 1.07 µM) | MIC of antibiotics [12]: 16 µg/mL | MIC of antibiotic ([13]; Table 26): 0.5 µg/mL | antibiotic MIC ([13]; Table 27): 0.5 µg/mL
Molecule: NC[C@H]1O[C@H](O[C@H]2[C@H](O)[C@@H](O[C@H]3O[C@H](CO)[C@@H](O)[C@H](N)[C@H]3O)[C@H](N)C[C@@H]2N)[C@H](N)C[C@@H]1O [Tobramycin]

MIC (MRSA): 8 µg/mL (≈ 4.76 µM) | MIC MRSA ATCC BAA-1556 (MRSA): 4 µg/mL (≈ 2.38 µM) | MIC Escherichia coli (ATCC 25922) (E. coli): 32 µg/mL (≈ 19 µM) | MIC Pseudomonas aeruginosa (ATCC 27883) (PSA): 16 µg/mL (≈ 9.51 µM) | MIC Klebsiella pneumoniae (ATCC BAA-1705) (KPC): 64 µg/mL (≈ 38.1 µM)
Molecule: N=C(N)NCCC[C@@H]1NC(=O)[C@H](CCCNC(=N)N)NC(=O)[C@H](CCCNC(=N)N)NC(=O)[C@H](CCCNC(=N)N)NC(=O)[C@H](Cc2c[nH]c3ccccc23)NC(=O)[C@H](Cc2c[nH]c3ccccc23)NC(=O)[C@H](Cc2c[nH]c3ccccc23)NC(=O)[C@H](Cc2c[nH]c3ccccc23)NC(=O)[C@H](CCCNC(=N)N)NC(=O)[C@H](CCCNC(=N)N)NC1=O [[R6W4] (IFX-318)] (cyclo(RRRRRRWWWW))

Molecule: N=C(N)NCCC[C@@H]1NC(=O)[C@H](CCCNC(=N)N)NC(=O)[C@H](CCCNC(=N)N)NC(=O)[C@H](Cc2c[nH]c3ccccc23)NC(=O)[C@H](Cc2c[nH]c3ccccc23)NC(=O)[C@H](Cc2c[nH]c3ccccc23)NC(=O)[C@H](Cc2c[nH]c3ccccc23)NC(=O)[C@H](Cc2c[nH]c3ccccc23)NC(=O)[C@H](CCCNC(=N)N)NC(=O)[C@H](CCCNC(=N)N)NC1=O [[R5W5] (IFX-314)] (cyclo(RRRRRWWWWW))
MIC MRSA ATCC BAA-1556 (MRSA): 4 µg/mL (≈ 2.34 µM) | MIC Escherichia coli (ATCC 25922) (E. coli): 16 µg/mL (≈ 9.35 µM) | MIC Pseudomonas aeruginosa (ATCC 27883) (PSA): 32 µg/mL (≈ 18.7 µM) | MIC Klebsiella pneumoniae (ATCC BAA-1705) (KPC): 32 µg/mL (≈ 18.7 µM)

Molecule: N=C(N)NCCC[C@@H]1NC(=O)[C@H](CCCNC(=N)N)NC(=O)[C@H](CCCNC(=N)N)NC(=O)[C@H](Cc2c[nH]c3ccccc23)NC(=O)[C@H](Cc2c[nH]c3ccccc23)NC(=O)[C@H](Cc2c[nH]c3ccccc23)NC(=O)[C@H](Cc2c[nH]c3ccccc23)NC(=O)[C@H](CCCNC(=N)N)NC(=O)[C@H](CCCNC(=N)N)NC1=O [[R5W4] (IFX-301)]
MIC (MRSA): 4 µg/mL (≈ 2.62 µM) | MIC MRSA ATCC BAA-1556 (MRSA): 4 µg/mL (≈ 2.62 µM) | MIC Escherichia coli (ATCC 25922) (E. coli): 16 µg/mL (≈ 10.5 µM) | MIC [14]: 8 µg/mL (≈ 5.24 µM) | MIC Pseudomonas aeruginosa (ATCC 27883) (PSA): 32 µg/mL (≈ 21 µM) | MIC Klebsiella pneumoniae (ATCC BAA-1705) (KPC): 32 µg/mL (≈ 21 µM)

MIC MRSA ATCC BAA-1556 (MRSA): 8 µg/mL | MIC Escherichia coli (ATCC 25922) (E. coli): 32 µg/mL | MIC Pseudomonas aeruginosa (ATCC 27883) (PSA): 32 µg/mL | MIC Klebsiella pneumoniae (ATCC BAA-1705) (KPC): 64 µg/mL
Molecule: H-RRRRRWWWWK-OH [Linear R5W4K (SEQ ID NO. 36)]

MIC MRSA ATCC BAA-1556 (MRSA): 16 µg/mL (≈ 8.7 µM) | MIC Escherichia coli (ATCC 25922) (E. coli): 32 µg/mL (≈ 17.4 µM) | MIC Pseudomonas aeruginosa (ATCC 27883) (PSA): 32 µg/mL (≈ 17.4 µM) | MIC Klebsiella pneumoniae (ATCC BAA-1705) (KPC): 64 µg/mL (≈ 34.8 µM)
Molecule: N=C(N)NCCC[C@@H]1NC(=O)[C@H](CCCNC(=N)N)NC(=O)[C@H](CCCNC(=N)N)NC(=O)[C@H](CCCNC(=N)N)NC(=O)[C@H](Cc2c[nH]c3ccccc23)NC(=O)[C@H](Cc2c[nH]c3ccccc23)NC(=O)[C@H](Cc2c[nH]c3ccccc23)NC(=O)[C@H](Cc2c[nH]c3ccccc23)NC(=O)[C@H](CCCNC(=N)N)NC(=O)[C@H](CCCNC(=N)N)NC(=O)[C@H](CCCNC(=N)N)NC1=O [[R7W4] (IFX-322)] (cyclo(RRRRRRRWWWW))

MIC ([7]; read-out: Klebsiella pneumoniae (ATCC BAA-1705) MIC, Table 28, IFX-031, antibiotics alone and PHY-MIX (1:1 w/w)): > 32 µg/mL | MIC [7, 15]: > 32 µg/mL | MIC [7, 16]: > 32 µg/mL | MIC [7, 17]: > 32 µg/mL | MIC ([8]; read-out: Escherichia coli (ATCC 25922) MIC, Table 28, IFX-031, antibiotics alone and PHY-MIX (1:1 w/w)): > 32 µg/mL | MIC ([8]; read-out: Escherichia coli (ATCC 25922) MIC, Table 29, [R6W4] (IFX-318), antibiotics alone and PHY-MIX (1:1 w/w)): > 32 µg/mL | MIC [8, 18]: > 32 µg/mL | MIC [8, 19]: > 32 µg/mL | MIC [9, 20]: > 32 µg/mL | MIC [9, 21]: > 32 µg/mL | MIC ([11]; read-out: MRSA (ATCC BAA-1556) MIC, Table 28, IFX-031, antibiotics alone and PHY-MIX (1:1 w/w)): > 32 µg/mL | MIC [11, 22]: > 32 µg/mL
Molecule: Cc1ncc([N+](=O)[O-])n1CCO [Metronidazole]

Molecule: N=C(N)NCCC[C@@H]1NC(=O)[C@H](CCCNC(=N)N)NC(=O)[C@H](CCCNC(=N)N)NC(=O)[C@H](Cc2c[nH]c3ccccc23)NC(=O)[C@H](Cc2c[nH]c3ccccc23)NC(=O)[C@H](Cc2c[nH]c3ccccc23)NC(=O)[C@H](Cc2c[nH]c3ccccc23)NC(=O)[C@H](CCCNC(=N)N)NC1=O [[R4W4] (IFX-326)] (cyclo(RRRRWWWW))
MIC MRSA ATCC BAA-1556 (MRSA): 4 µg/mL (≈ 2.92 µM) | MIC Escherichia coli (ATCC 25922) (E. coli): 16 µg/mL (≈ 11.7 µM) | MIC Pseudomonas aeruginosa (ATCC 27883) (PSA): 64 µg/mL (≈ 46.7 µM) | MIC Klebsiella pneumoniae (ATCC BAA-1705) (KPC): 32 µg/mL (≈ 23.4 µM)
